Measurements published in patent publication US11266642B2, “Small molecule inhibitors of HLA-DR3 binding for treating autoimmune thyroiditis” (ICAHN SCHOOL OF MEDICINE AT MOUNT SINAI, priority 2015, dated 2022).

Tests used:
[1] = target: T1, HLA-DR3 on VAVY cells (HLA-DRβ1-Arg74 positive) (Homo sapiens, UniProt P01903+P01911, A100K/A102G/A103R/A169T/F55Y/I96L/K41T/L162R/M171V/P40S/Q125H/Q178H/Q39Y/R42S/S66N/T106N/T262R/W38E/Y61H); test: Tg.2098 peptide binding to VAVY cells, flow cytometry; format: cell-based; conditions: 0.025 mM Ia, 7 h pre-incubation; 0.5 μM Tg.2098, 24 h; 42.7% without Ia
T1 construct: VAVY B-cell line that is homozygous for DR3 (confirmed to contain DRβ1-Arg74); host or cells: VAVY B-cell line
T1 sequence (P01903 26-254, other chains not shown): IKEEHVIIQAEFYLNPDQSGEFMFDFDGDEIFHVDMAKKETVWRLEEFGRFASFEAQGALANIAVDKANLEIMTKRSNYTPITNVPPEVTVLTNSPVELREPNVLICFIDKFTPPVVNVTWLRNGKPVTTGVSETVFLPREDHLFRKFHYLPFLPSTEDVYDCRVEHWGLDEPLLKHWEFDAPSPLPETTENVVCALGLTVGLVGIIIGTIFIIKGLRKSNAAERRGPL
Protocol: VAVY cells (European Collection of Cell Cultures) were cultured in RPMI (ATCC, Manassas, Va.) supplied with 10% FBS (Sigma-Aldrich, St. Louis, Mo.), 1% Penicillin-Streptomycin (Corning, N.Y.), 2 mM glutamine (Corning, N.Y.) and […] ciprofloxacin hydrochloride (Hospira, Lake Forest, Ill.). Cells were grown at 37° C., 5% CO2 and passaged 1-2 times a week. Cells expressing DR2 (National Development and Research Institutes, Inc) were cultured using the same conditions as VAVY cells. N-terminal biotinylated peptide Tg.2098 was used to test for binding to VAVY cells which express HLA-DR3 on their surface (HLA-DRβ1-Arg74 positive). APC Streptavidin (BD Biosciences, Franklin Lakes, N.J.) was used to detect the biotinylated peptides. A scrambled peptide of Tg.2098 (scr2098) was used as a negative control. VAVY cells were seeded at 2.5×10^6 cells/mL in a 24-well plate (BD Biosciences) and pre-incubated for 7 hours with 0.025 mM of compound Ia or 40% Captisol (Ligand Pharmaceuticals, Inc, La Jolla, Calif.) [the vehicle used to dissolve test compound in this experiment], before 0.5 μM Tg.2098 was added. After 24 h incubation, cells were stained with PE mouse anti-human HLA-DR (BD Biosciences) and APC Streptavidin to detect binding of the peptide to VAVY cells and the inhibitory effect of Compound Ia. Inhibition was analyzed by flow cytometry. As a negative control, cells expressing HLA-DR2 were pre-incubated with example Ia or 40% Captisol, before biotinylated myelin basic protein (MBP) 87-99 (known binder to HLA-DR2) was added and incubated for 24 hours. HLA-DR2 cells were stained with PE mouse anti-human HLA-DR and APC Streptavidin to detect binding of biotinylated MBP87-99 to DR2 expressing cells and to assess the inhibitory effect of compound Ia on peptide binding. To confirm the ELISA results we performed binding inhibition studies using the VAVY B-cell line that is homozygous for DR3 (confirmed to contain DRβ1-Arg74). […]

[2] = tested on: T-cells of hTg immunized mice; test: CFSE T-cell proliferation of splenocytes from hTg immunized NOD-DR3 mice, compound added ex vivo; format: cell-based, mouse; conditions: final concentration 0.001 mM
Protocol: Female NOD-DR3 mice, 4-6 weeks old, were injected subcutaneously with human thyroglobulin (hTg) (Cell Sciences, Canton, Mass.) in complete Freund adjuvant (CFA) (Sigma) to induce EAT. Mice were immunized with hTg on day 0 and boosted on day 7; mice were sacrificed on day 21. For some mice, PC61 (anti-CD25) antibody (ATCC) at 7.5 mg/mL was injected i.p. on day (−4) and day 3 to deplete T regulatory (CD25+) cells and augment the autoimmune response to hTg.
Spleen and draining lymph nodes were collected from mice upon sacrifice. The spleens and draining lymph nodes were harvested in complete RPMI (Corning) supplemented with 10% FBS (Sigma-Aldrich,) and 1 mM sodium pyruvate (Sigma-Aldrich). They were cut and pressed in circular motion using a plunger from a 10 mL syringe. The suspension was filtered through a 100 μm cell strainer twice and centrifuged at 200×g for 10 minutes. The supernatant was discarded. […] The pellet was resuspended in RPMI and the cells were counted and plated. […]
The CFSE-labeled cells were plated at 2×10^5 cells per well in 100 μL of medium (RPMI/10% FBS). […] The results were analyzed using Flowjo (Tree Star, Ashland, Oreg.). The stimulation index was calculated by using the following formula: Stimulation index=[% proliferating lymphocytes (hTg, peptide or mitogen-treated)]/[% proliferating lymphocytes (medium-treated)]. […]

binding of Tg.2098 to VAVY cells in the presence of Ia [1]: 16.6%
SMILES: COc1ccc2cc1Oc1ccc(cc1)C[C@H]1c3c(cc4c(c3Oc3cc5c(cc3OC)CCN(C)[C@@H]5C2)OCO4)CCN1C [Compound Ia, cepharanthine]
activation of T-cells of hTg immunized mice by Tg.2098 ([2]; Tg.2098 20 μg/ml, p=0.0079): significantly blocked | activation of T-cells of hTg immunized mice by hTg ([2]; hTg 40 μg/mL, p=0.0005): significantly blocked
